Measurements as given in patent US7141557B2, “Lipid analogs for treating viral infections” (Wake Forest University, priority 1994, dated 2006).

Legend:
HBV = experiment: Inhibition of HBV replication in transfected HepG2 cells by ELISA; assay type: cell-based; settings: read-out: anti-HBV activity (IC50)
From the text: These cells constituitively replicate HBV particles.

CEM-SS cells = experiment: Cytotoxicity by uptake of TdR-H3 into total DNA in CEM-SS cells; assay type: cell-based; settings: serial concentrations of compound
HIV-1 = experiment: Anti-HIV-1 syncytial plaque assay using CEM-SS cell monolayers; assay type: cell-based, human immunodeficiency virus type 1 (HIV-1); settings: for IC50: HIV-1 syncytial plaque formation, CEM-SS cell monolayers, plaques counted at five days; for inhibition of HIV-1 activity in CEM-SS cells: in nanomolar concentration
From the text: In brief, CEM-SS cell monolayers were infected with HIV-1. Infected cells were overlaid with RPMI-1640 medium plus 10 percent fetal bovine serum (FBS) supplemented with different concentrations of inhibitor. Plaques were counted at five days after infection. In this assay HIV-1 syncytial plaques are seen as large, multicellular foci (10 to 25 nuclei/syncytium) that appear either brown and granular or clear. Since the number of HIV-1 syncytial plaques correlates with reverse transcriptase (RT) and p24 core antigen activity in the HIV-1 infected cell overlay fluids, the syncytial plaque assay can be used to quantify the amount of infectious virus. Reverse transcriptase activity was assayed according to a described procedure (B. J. Poeisz et al., Proc. Natl. Acad. Scie. (U.S.A.) 77, 7415 (1980)). The activity of p24 core antigen induced by HIV-1 infection of CEM-SS cells was measured spectrophotometrically using the commercial Coulter EIA.

[1] = tested on: HBV-induced DNA, core antigen (HBcAg) and "e" antigen (HBeAg); experiment: Mechanism studies: cellular production of HBV-induced DNA, core antigen and e antigen; assay type: cell-based
HepG2 cells = settings: read-out: cytotoxicity (TC50); HepG2 cells transfected with HBV genomes; neutral red dye uptake
Method: Human hepatoblastomas (HepG2) cells were tranfected with plasmid DNA containing tandem copies of HBV genomes. These cells constituitively replicate HBV particles. HepG2 cells were treated with varying concentrations of CP-128 to determine the toxic cell concentration (TC50) by neutral red dye uptake. Also, the inhibitory concentration (IC50) of CP-128 for HBV replication was determined by ELISA.

| Structure (SMILES) | IC50 (HBV) | IC50 (CEM-SS cells) | IC50 (HIV-1) | inhibition of HIV-1 activity in CEM-SS cells (HIV-1) | effect on cellular production of HBV-induced DNA, core antigen (HBcAg) and "e" antigen (HBeAg) [1] | CC50 (HepG2 cells) |
| --- | --- | --- | --- | --- | --- | --- |
| CCCCCCCCCCCC(=O)NCC(COP(=O)([O-])OCC[N+](C)(C)C)OCCCCCCCCCC (stereo not shown) [CP-128, 1-dodecanamido-2-decyloxypropyl-3-phosphocholine] | 15.6 µM | 31.6 µM | 0.14 µM | substantially inhibit | inhibitory effect | 61.7 µM |
| CCCCCCCCCCCCOCC(COP(=O)([O-])OCC[N+](C)(C)C)OCCCCCCCCCC (stereo not shown) [CP-129, 1-dodecyloxy-2-decyloxypropyl-3-phosphocholine] | – | 75.7 µM | 0.64 µM | substantially inhibit | – | – |
| CCCCCCCCCCCC(=O)NCC(COP(=O)([O-])OCC[N+](C)(C)C)OCCCCCCCC (stereo not shown) [CP-130, 1-dodecanamido-2-octyloxypropyl-3-phosphocholine] | – | 67.2 µM | 0.11 µM | substantially inhibit | – | – |
| CCCCCCCCCCCCOC(CNC(=O)CCCCCCCCCCC)COP(=O)([O-])OCC[N+](C)(C)C (stereo not shown) [CP-131, 1-dodecanamido-2-dodecyloxypropyl-3-phosphocholine] | – | 36.6 µM | 0.32 µM | substantially inhibit | – | – |
| CCCCCCCCCCCCCCCCSC1CCCC(OP(=O)([O-])OCC[N+](C)(C)C)C1 (stereo not shown) [INK-1, 3-hexadecylthio-cyclohexylphosphocholine] | – | – | – | substantially inhibit | – | – |
